Measurements published in patent publication US20060019971A1, “Treatment of cardiovascular disease with inhibitors of p38 kinase” (priority 2003, published 2006).

System: IL-6 secretion from HPBMCs
Test: IL-6 secretion from HPBMCs, ELISA
Assay type: cell-based, human
Protocol: FIG. 2(a) illustrates both the effect of CRP on IL-6 secretion from HPBMCs and its modulation by a p38 inhibitor. 8×10^5 HPBMCs were plated in 96-well. After 1 hour medium was removed and cells were incubated with or without 10 μg/ml of purified human CRP in serum-free RPMI 1640. In parallel experiments cells were treated with 10% FCS together with the CRP treatment. For the p38 antagonism, the p38 inhibitor was added to a final concentration of 1 μM in the parallel treatment. After 6 hours the conditioned medium was collected and IL-6 and IL-8 levels were determined by ELISA. FIG. 2(b) illustrates the effects of p38 inhibitor concentration on CRP induced IL-6 secretion from HPBMCs. 3×10^5 HPBMCs were plated in 96-well. After 1 hour medium was removed and cells were incubated with 10 μg/ml of purified human CRP plus 10% FCS in the presence of varying concentrations of p38 inhibitor. After 4 hours conditioned medium were collected and IL-6 level was determined by ELISA. FIG. 2(c) illustrates both the effect of CRP on IL-6 gene expressions in HPBMCs and its modulation by p38 inhibitor. 5×10^6 HPBMCs were plated in 6-well. After 1 hour medium was removed and cells were treated with vehicle or 1 μM p38 inhibitor in RPMI 1640 medium. After 1 hour cells were stimulated with 10% FCS only or 10 μg/ml CRP plus 10% FCS. After 6 hours RNA was extracted from the cells and IL-6 expression level was determined by real-time PCR as described in Experimental section.
Cryopreserved human peripheral blood monocytes (HPBMCs, from Biowitker, Walkersvill, Md.) were thawed and washed twice in RPMI 1640. Cells were plated in tissue culture plates and incubated in 5% CO2 at 37 C. After 1 hr media were removed and cells were treated with various treatments. After 2 to 20 hours conditioned media and/or cell lysates were collected for the analyses of secreted cytokines, protein or mRNA expression. 10 μg/ml of purified human CRP (Calbiochem, San Diego, Calif.) was used in most of the treatments. In some experiments fetal calf serum (FCS from ATCC) was added to a final concentration of 10% together with CRP. In the examples provided herein, including those assessing the effects of p38 antagonism, cells were pre-treated with SD, a p38 small molecule inhibitor (Compound 162 in Table A) for 1 hour prior to CRP treatment as described above. In a parallel series of experiments, the effect of vehicle (DMSO) was tested. For TaqMan analyses of various gene expression cells were lysed in ice-cold RLT lysis buffer (Qiagen, Valencia, Calif.) and the lysates were kept in −80° C. until the analyses. For Western analyses cells were lysed in RIPA buffer (50 mM Tris-HCl, pH 7.5, 150 mM NaCl, 1 mM EDTA, 1% NP-40) containing phosphatase inhibitor cocktails and protease inhibitor cocktail (Promega, Madison, Wis.).
Conditioned media from the treated cells were collected (6 to 20 hrs), and the level of secreted interleukin 6 (IL-6), interleukin 1 beta (IL-1 β), tumor necrosis factor alpha (TNFα), and interleukin 8 (IL-8) was determined by ELISA according to the manufacturer's instruction (Biosource International, Camarillo, Calif.). All determinations were performed in duplicates.
As part of the studies described herein, an investigation was done as to whether the CRP invoked IL-6 secretion from HPBMCs is dependent on p38 MAP kinase signaling. […] The effect of addition of 10% fetal calf serum (FCS) during the CRP treatment on IL-6 secretion was also assessed. […]

IC50 (Homo sapiens, CRP 10 μg/ml in the presence of 10% FCS, 4 hours, read-out: concentration effective to inhibit 50% of IL-6 secretion): < 50 nM
Compound: C[C@@H]1CN(Cc2ccc(F)cc2)[C@@H](C)CN1C(=O)c1cc2c(C(=O)C(=O)N(C)C)c[nH]c2cc1Cl [Compound 162]
inhibition of CRP-induced IL-6 secretion (1 μM SD, 10 μg/ml CRP, no FCS, 6 hours): almost completely attenuated
inhibition of IL-6 secretion induced by CRP plus 10% FCS (1 μM SD, 6 hours): dramatically inhibited
inhibition of basal IL-6 secretion (1 μM SD, HPBMCs, 6 hours): almost completely attenuated
inhibition of IL-6 secretion invoked by CRP in the presence of FCS (3 μM SD, 4 hours): almost completely inhibited
